According to US11542313B2, “Incretin analogs and uses thereof” (Eli Lilly and Company, priority 2017, dated 2023):
*1 amine or outer side, *2 acyl side, *3 side chain or, on linkers, in order; H or OH if unused. Where a SMILES comes first, the peptide text is derived from it. Side-chain parts run from the residue outwards. [ ]: non-standard residue; d: D form. The star is where a group is joined. C20 diacid = O=C(O)CCCCCCCCCCCCCCCCCCC(=O)*; γGlu = O=C(O)[C@H](CCC(=O)[*:2])N[*:1]; αMeL = CC(C)C[C@](C)(N)C(=O)O; αMeK = C[C@](N)(CCCCN)C(=O)O; AEEA = NCCOCCOCC(=O)O; Aib = CC(C)(N)C(=O)O

What was measured:
[1] = target: T1, human GIP receptor (GIPR) (Homo sapiens, UniProt P48546); test: Radioligand competition binding (SPA), human GIPR membranes; details: HEK293 membranes, SPA, bacitracin present; mean; read-out: Ki, GIPR
T1 construct: expressed in transfected cells; host or cells: HEK293 (membranes)
T1 sequence (P48546 22-466): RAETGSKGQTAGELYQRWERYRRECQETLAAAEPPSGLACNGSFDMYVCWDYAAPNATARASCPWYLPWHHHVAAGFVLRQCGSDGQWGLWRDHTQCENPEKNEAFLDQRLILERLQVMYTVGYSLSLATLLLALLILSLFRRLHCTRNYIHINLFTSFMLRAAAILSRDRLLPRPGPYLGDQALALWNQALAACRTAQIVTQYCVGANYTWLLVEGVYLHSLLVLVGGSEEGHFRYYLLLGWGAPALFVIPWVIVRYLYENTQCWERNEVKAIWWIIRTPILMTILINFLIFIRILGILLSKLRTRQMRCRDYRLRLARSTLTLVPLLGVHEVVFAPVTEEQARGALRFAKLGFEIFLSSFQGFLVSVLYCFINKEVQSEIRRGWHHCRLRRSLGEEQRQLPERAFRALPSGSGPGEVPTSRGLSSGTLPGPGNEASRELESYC
Source text: (§1) Radioligand competition binding assays are run to determine the equilibrium dissociation constant for exemplary compounds and comparator molecules.
(§2) Competition curves are plotted as the percent specific inhibition (y-axis) versus log concentration of compound (x-axis) and analyzed using a four parameter nonlinear regression fit with variable slope (ABase or Genedata).

hGIPR = target: T2, hGIPR (Homo sapiens, UniProt P48546); test: cAMP assay in HEK293 cells expressing hGIPR, 0.1% casein; type: cell-based; details: in the presence of 0.1% casein; read-out: cAMP EC50, GIPR
T2 construct: expressed in transfected cells; host or cells: HEK293
T2 sequence (P48546 22-466): T1 sequence (P48546 22-466)

[2] = rat, in vivo, sc, 100 nmol/kg
Method: (§3) The pharmacokinetics of the exemplary analogs are evaluated following a single subcutaneous administration of 100 nM/kg to male Sprague Dawley rats. Blood samples are collected over 120 hours, and resulting individual plasma concentrations are used to calculate pharmacokinetic parameters. Peptide plasma (K3 EDTA) concentrations are determined using a qualified LC/MS method that measured the intact mass of the analog. Each peptide and an analog as an internal standard are extracted from 100% specie specified plasma using methanol with 0.1% formic acid. A Thermo Q-Exactive, High Resolution Instrument, and a Thermo Easy Spray PepMap are combined for LC/MS detection.

[3] = target: T3, human glucagon receptor (GcgR) (Homo sapiens, UniProt P47871); test: Radioligand competition binding (SPA), human GcgR membranes; details: HEK293 membranes, SPA, bacitracin present; mean; read-out: Ki, GcgR
T3 construct: expressed in transfected cells; host or cells: HEK293 (membranes)
T3 sequence (P47871 26-477): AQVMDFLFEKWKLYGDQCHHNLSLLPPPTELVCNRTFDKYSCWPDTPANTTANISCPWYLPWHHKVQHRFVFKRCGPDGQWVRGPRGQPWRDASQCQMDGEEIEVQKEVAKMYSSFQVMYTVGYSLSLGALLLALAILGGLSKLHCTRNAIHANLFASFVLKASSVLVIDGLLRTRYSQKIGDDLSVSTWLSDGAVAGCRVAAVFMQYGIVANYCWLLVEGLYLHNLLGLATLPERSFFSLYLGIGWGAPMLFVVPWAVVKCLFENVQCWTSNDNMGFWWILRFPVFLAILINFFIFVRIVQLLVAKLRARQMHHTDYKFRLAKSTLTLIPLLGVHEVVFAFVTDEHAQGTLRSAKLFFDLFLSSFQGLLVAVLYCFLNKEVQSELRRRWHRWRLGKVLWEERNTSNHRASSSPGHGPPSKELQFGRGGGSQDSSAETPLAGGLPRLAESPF
Source text: as §1, §2

in vivo = details: male, Sprague-Dawley, rat, sc, 100 nmol/kg
Method: as §3

hGcgR = target: T4, hGcgR (Homo sapiens, UniProt P47871); test: cAMP assay in HEK293 cells expressing hGcgR, 0.1% casein; type: cell-based; details: in the presence of 0.1% casein; read-out: cAMP EC50, GcGR
T4 construct: expressed in transfected cells; host or cells: HEK293
T4 sequence (P47871 26-477): as above

GLP-1 receptor (GLP-1R) = target: T5, GLP-1 receptor (GLP-1R) (Homo sapiens, UniProt P43220); test: Radioligand competition binding (SPA), human GLP-1R membranes; details: HEK293 membranes, SPA, bacitracin present; mean; read-out: Ki, GLP-1R
T5 construct: expressed in transfected cells; host or cells: HEK293 (membranes)
T5 sequence (P43220 24-463): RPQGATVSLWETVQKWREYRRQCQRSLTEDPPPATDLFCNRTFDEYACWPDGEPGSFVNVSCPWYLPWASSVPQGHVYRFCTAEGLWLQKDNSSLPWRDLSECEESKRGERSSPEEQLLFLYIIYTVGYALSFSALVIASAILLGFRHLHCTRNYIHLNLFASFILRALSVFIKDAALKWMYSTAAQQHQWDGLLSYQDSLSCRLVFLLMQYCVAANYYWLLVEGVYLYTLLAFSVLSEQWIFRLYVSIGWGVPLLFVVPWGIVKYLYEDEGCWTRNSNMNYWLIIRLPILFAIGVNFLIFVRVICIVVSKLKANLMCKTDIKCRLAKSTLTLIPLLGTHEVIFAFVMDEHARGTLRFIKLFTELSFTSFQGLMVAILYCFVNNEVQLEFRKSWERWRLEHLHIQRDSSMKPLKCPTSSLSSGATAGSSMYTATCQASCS
Source text: as §1, §2

hGLP-1R = hGLP-1R (Homo sapiens, UniProt P43220); test: cAMP assay in HEK293 cells expressing hGLP-1R, 0.1% casein; type: cell-based; details: in the presence of 0.1% casein; read-out: cAMP EC50, GLP-1R
Chain of hGLP-1R (P43220 24-463): as above

SMILES	Ki [1] [nM]	EC50 (hGIPR) [nM]	AUCINF_D_obs [2] [hr*kg*nmol/L/nmol]	Ki [3] [nM]	CL/F (in vivo) [mL/min/kg]	Tmax (in vivo) [h]	half-life (in vivo) [min]	EC50 (hGcgR) [nM]	Ki (GLP-1 receptor (GLP-1R)) [nM]	EC50 (hGLP-1R) [nM]
CC[C@H](C)[C@H](NC(=O)[C@H](Cc1ccccc1)NC(=O)[C@H](C)NC(=O)[C@](C)(CCCCN)NC(=O)[C@H](CCC(N)=O)NC(=O)[C@H](C)NC(=O)[C@H](CCCCNC(=O)COCCOCCNC(=O)COCCOCCNC(=O)CC[C@H](NC(=O)CCCCCCCCCCCCCCCCCCC(=O)O)C(=O)O)NC(=O)[C@H](CCCCN)NC(=O)[C@H](CC(=O)O)NC(=O)[C@H](CC(C)C)NC(=O)[C@](C)(CC(C)C)NC(=O)[C@@H](NC(=O)[C@H](CO)NC(=O)[C@H](Cc1ccc(O)cc1)NC(=O)[C@H](CC(=O)O)NC(=O)[C@H](CO)NC(=O)[C@@H](NC(=O)[C@H](Cc1ccccc1)NC(=O)[C@@H](NC(=O)CNC(=O)[C@H](CCC(N)=O)NC(=O)C(C)(C)NC(=O)[C@@H](N)Cc1ccc(O)cc1)[C@@H](C)O)[C@@H](C)O)[C@@H](C)CC)C(=O)N[C@@H](CCC(=O)O)C(=O)N[C@@H](Cc1ccc(O)cc1)C(=O)N[C@@H](CC(C)C)C(=O)N[C@@H](CC(C)C)C(=O)N[C@@H](C)C(=O)NC(C)(C)C(=O)NCC(=O)N1CCC[C@H]1C(=O)N[C@@H](CO)C(=O)N[C@@H](CO)C(=O)NCC(=O)N[C@@H](C)C(=O)N1CCC[C@H]1C(=O)N1CCC[C@H]1C(=O)N1CCC[C@H]1C(=O)N[C@@H](CO)C(N)=O [Example 1] (H-Y[Aib]QGTFTSDYSI[αMeL]LDKK([AEEA-AEEA-γGlu-C20 diacid])AQ[αMeK]AFIEYLLA[Aib]GPSSGAPPPS-NH2; N-terminus assumed)	0.0469	0.0523	95.7	8.41	0.173	8	702	0.114	2.64	0.153
CC[C@H](C)[C@H](NC(=O)[C@H](Cc1ccccc1)NC(=O)[C@H](C)NC(=O)C(C)(C)NC(=O)[C@H](CCC(N)=O)NC(=O)[C@H](C)NC(=O)[C@H](CCCCNC(=O)COCCOCCNC(=O)CC[C@H](NC(=O)CCCCCCCCCCCCCCCCCCC(=O)O)C(=O)O)NC(=O)[C@H](CCCCN)NC(=O)[C@H](CC(=O)O)NC(=O)[C@H](CC(C)C)NC(=O)[C@H](CC(C)C)NC(=O)[C@@H](NC(=O)[C@H](CO)NC(=O)[C@H](Cc1ccc(O)cc1)NC(=O)[C@H](CC(=O)O)NC(=O)[C@H](CO)NC(=O)[C@@H](NC(=O)[C@H](Cc1ccccc1)NC(=O)[C@@H](NC(=O)CNC(=O)[C@H](CCC(N)=O)NC(=O)C(C)(C)NC(=O)[C@@H](N)Cc1ccc(O)cc1)[C@@H](C)O)[C@@H](C)O)[C@@H](C)CC)C(=O)N[C@@H](CCC(=O)O)C(=O)N[C@@H](Cc1ccc(O)cc1)C(=O)N[C@@H](CC(C)C)C(=O)N[C@@H](CC(C)C)C(=O)N[C@@H](C)C(=O)NC(C)(C)C(=O)NCC(=O)N1CCC[C@H]1C(=O)N[C@@H](CO)C(=O)N[C@@H](CO)C(=O)NCC(=O)N[C@@H](C)C(=O)N1CCC[C@H]1C(=O)N1CCC[C@H]1C(=O)N1CCC[C@H]1C(=O)N[C@@H](CO)C(N)=O [Example 4] (H-Y[Aib]QGTFTSDYSILLDKK([AEEA-γGlu-C20 diacid])AQ[Aib]AFIEYLLA[Aib]GPSSGAPPPS-NH2)	0.0374	0.0648	140	2.55	0.12	16	1190	0.0674	3.54	0.18
CC[C@H](C)[C@H](NC(=O)[C@H](Cc1ccccc1)NC(=O)[C@H](C)NC(=O)C(C)(C)NC(=O)[C@H](CCC(N)=O)NC(=O)[C@H](C)NC(=O)[C@H](CCCCNC(=O)COCCOCCNC(=O)CC[C@H](NC(=O)CCCCCCCCCCCCCCCCCCC(=O)O)C(=O)O)NC(=O)[C@H](CCCCN)NC(=O)[C@H](CC(=O)O)NC(=O)[C@H](CC(C)C)NC(=O)[C@](C)(CC(C)C)NC(=O)[C@@H](NC(=O)[C@H](CO)NC(=O)[C@H](Cc1ccc(O)cc1)NC(=O)[C@H](CC(=O)O)NC(=O)[C@H](CO)NC(=O)[C@@H](NC(=O)[C@H](Cc1ccccc1)NC(=O)[C@@H](NC(=O)CNC(=O)[C@H](CCC(N)=O)NC(=O)C(C)(C)NC(=O)[C@@H](N)Cc1ccc(O)cc1)[C@@H](C)O)[C@@H](C)O)[C@@H](C)CC)C(=O)N[C@@H](CCC(=O)O)C(=O)N[C@@H](Cc1ccc(O)cc1)C(=O)N[C@@H](CC(C)C)C(=O)N[C@@H](CC(C)C)C(=O)N[C@@H](CCC(=O)O)C(=O)NC(C)(C)C(=O)NCC(=O)N1CCC[C@H]1C(=O)N[C@@H](CO)C(=O)N[C@@H](CO)C(=O)NCC(=O)N[C@@H](C)C(=O)N1CCC[C@H]1C(=O)N1CCC[C@H]1C(=O)N1CCC[C@H]1C(=O)N[C@@H](CO)C(N)=O [Example 13] (H-Y[Aib]QGTFTSDYSI[αMeL]LDKK([AEEA-γGlu-C20 diacid])AQ[Aib]AFIEYLLE[Aib]GPSSGAPPPS-NH2)	0.0452	0.0391	205.7	1.91	0.0817	20	1300	0.0815	6.43	0.125
CC[C@H](C)[C@H](NC(=O)[C@H](Cc1ccccc1)NC(=O)[C@H](C)NC(=O)C(C)(C)NC(=O)[C@H](CCC(N)=O)NC(=O)[C@H](C)NC(=O)[C@H](CCCCNC(=O)COCCOCCNC(=O)CC[C@H](NC(=O)CC[C@H](NC(=O)CCCCCCCCCCCCCCCCCCC(=O)O)C(=O)O)C(=O)O)NC(=O)[C@H](CCCCN)NC(=O)[C@H](CC(=O)O)NC(=O)[C@H](CC(C)C)NC(=O)[C@H](CC(C)C)NC(=O)[C@@H](NC(=O)[C@H](CO)NC(=O)[C@H](Cc1ccc(O)cc1)NC(=O)[C@H](CC(=O)O)NC(=O)[C@H](CO)NC(=O)[C@@H](NC(=O)[C@H](Cc1ccccc1)NC(=O)[C@@H](NC(=O)CNC(=O)[C@H](CCC(N)=O)NC(=O)C(C)(C)NC(=O)[C@@H](N)Cc1ccc(O)cc1)[C@@H](C)O)[C@@H](C)O)[C@@H](C)CC)C(=O)N[C@@H](CCC(=O)O)C(=O)N[C@@H](Cc1ccc(O)cc1)C(=O)N[C@@H](CC(C)C)C(=O)N[C@@H](CC(C)C)C(=O)N[C@@H](CCC(=O)O)C(=O)NC(C)(C)C(=O)NCC(=O)N1CCC[C@H]1C(=O)N[C@@H](CO)C(=O)N[C@@H](CO)C(=O)NCC(=O)N[C@@H](C)C(=O)N1CCC[C@H]1C(=O)N1CCC[C@H]1C(=O)N1CCC[C@H]1C(=O)N[C@@H](CO)C(N)=O [Example 19] (H-Y[Aib]QGTFTSDYSILLDKK([AEEA-γGlu-γGlu-C20 diacid])AQ[Aib]AFIEYLLE[Aib]GPSSGAPPPS-NH2; N-terminus assumed)	0.0789	0.0455		5.2				0.0874	12	0.143
CC[C@H](C)[C@H](NC(=O)[C@H](Cc1ccccc1)NC(=O)[C@H](C)NC(=O)C(C)(C)NC(=O)[C@H](CCC(N)=O)NC(=O)[C@H](C)NC(=O)[C@H](CCCCNC(=O)COCCOCCNC(=O)CC[C@H](NC(=O)CCCCCCCCCCCCCCCCCCC(=O)O)C(=O)O)NC(=O)[C@H](CCCCN)NC(=O)[C@H](CC(=O)O)NC(=O)[C@H](CC(C)C)NC(=O)[C@H](CC(C)C)NC(=O)[C@@H](NC(=O)[C@H](CO)NC(=O)[C@H](Cc1ccc(O)cc1)NC(=O)[C@H](CC(=O)O)NC(=O)[C@H](CO)NC(=O)[C@@H](NC(=O)[C@H](Cc1ccccc1)NC(=O)[C@@H](NC(=O)CNC(=O)[C@H](CCC(N)=O)NC(=O)C(C)(C)NC(=O)[C@@H](N)Cc1ccc(O)cc1)[C@@H](C)O)[C@@H](C)O)[C@@H](C)CC)C(=O)N[C@@H](CCC(=O)O)C(=O)N[C@@H](Cc1ccc(O)cc1)C(=O)N[C@@H](CC(C)C)C(=O)N[C@@H](CC(C)C)C(=O)N[C@@H](CCC(=O)O)C(=O)NC(C)(C)C(=O)NCC(=O)N1CCC[C@H]1C(=O)N[C@@H](CO)C(=O)N[C@@H](CO)C(=O)NCC(=O)N[C@@H](C)C(=O)N1CCC[C@H]1C(=O)N1CCC[C@H]1C(=O)N1CCC[C@H]1C(=O)N[C@@H](CO)C(N)=O [Example 20] (H-Y[Aib]QGTFTSDYSILLDKK([AEEA-γGlu-C20 diacid])AQ[Aib]AFIEYLLE[Aib]GPSSGAPPPS-NH2; N-terminus assumed)	0.109	0.0572		3.76				0.0641	9.23	0.149
